{"source": "patent US20090047259A1", "about": "“Methods of Using the Calcineurin A Variant CnA-beta 1” (priority 2005, published 2009)", "origin": "cited, not measured here", "system": "calcineurin", "settings": "mdx mice", "data": [{"smiles": "CC(=O)OCC(=O)[C@@]12N=C(C)O[C@@H]1C[C@H]1[C@@H]3CCC4=CC(=O)C=C[C@]4(C)[C@H]3[C@@H](O)C[C@@]12C", "note": "[deflazacort]", "values": [{"measurement": "NFAT-dependent genes, including utrophin", "value": "induced"}, {"measurement": "calcineurin activity", "value": "activated calcineurin"}, {"measurement": "myocyte viability", "value": "restored myocyte viability"}]}]}
